For assay [1], the target named is Vascular endothelial growth factor receptor 2 (Homo sapiens, UniProt P35968). Briefly: Inhibition of N-terminal GST-tagged human VEGFR-2 cytoplasmic domain (790 to 1356 residues) expressed in baculovirus expression system preincubated for 10 mins followed by FAM-labelled peptide substrate addition by caliper mobility shift assay.
A short description of assay [2]: Antiproliferative activity against human HT-29 cells measured after 48 hrs by MTT assay. The assay is classed as functional, cell-based. The note with it: HT-29, 48 h. On the technique in general: Tetrazolium assays rely on reduction of a dye to a coloured formazan, in cell work by metabolically active cells.
Assay [3] in a line: Antiproliferative activity against human MCF7 cells measured after 48 hrs by MTT assay. The note with it: MCF7, 48 h. The assay is classed as functional, cell-based.
The nature of assay [4]: Antiproliferative activity against human H460 cells measured after 48 hrs by MTT assay. The class given is functional, cell-based. The note with it: NCI-H460, 48 h.
In assay [5] the target is Epidermal growth factor receptor (Homo sapiens, UniProt P00533).
Sequence of Epidermal growth factor receptor (P00533 whole entry): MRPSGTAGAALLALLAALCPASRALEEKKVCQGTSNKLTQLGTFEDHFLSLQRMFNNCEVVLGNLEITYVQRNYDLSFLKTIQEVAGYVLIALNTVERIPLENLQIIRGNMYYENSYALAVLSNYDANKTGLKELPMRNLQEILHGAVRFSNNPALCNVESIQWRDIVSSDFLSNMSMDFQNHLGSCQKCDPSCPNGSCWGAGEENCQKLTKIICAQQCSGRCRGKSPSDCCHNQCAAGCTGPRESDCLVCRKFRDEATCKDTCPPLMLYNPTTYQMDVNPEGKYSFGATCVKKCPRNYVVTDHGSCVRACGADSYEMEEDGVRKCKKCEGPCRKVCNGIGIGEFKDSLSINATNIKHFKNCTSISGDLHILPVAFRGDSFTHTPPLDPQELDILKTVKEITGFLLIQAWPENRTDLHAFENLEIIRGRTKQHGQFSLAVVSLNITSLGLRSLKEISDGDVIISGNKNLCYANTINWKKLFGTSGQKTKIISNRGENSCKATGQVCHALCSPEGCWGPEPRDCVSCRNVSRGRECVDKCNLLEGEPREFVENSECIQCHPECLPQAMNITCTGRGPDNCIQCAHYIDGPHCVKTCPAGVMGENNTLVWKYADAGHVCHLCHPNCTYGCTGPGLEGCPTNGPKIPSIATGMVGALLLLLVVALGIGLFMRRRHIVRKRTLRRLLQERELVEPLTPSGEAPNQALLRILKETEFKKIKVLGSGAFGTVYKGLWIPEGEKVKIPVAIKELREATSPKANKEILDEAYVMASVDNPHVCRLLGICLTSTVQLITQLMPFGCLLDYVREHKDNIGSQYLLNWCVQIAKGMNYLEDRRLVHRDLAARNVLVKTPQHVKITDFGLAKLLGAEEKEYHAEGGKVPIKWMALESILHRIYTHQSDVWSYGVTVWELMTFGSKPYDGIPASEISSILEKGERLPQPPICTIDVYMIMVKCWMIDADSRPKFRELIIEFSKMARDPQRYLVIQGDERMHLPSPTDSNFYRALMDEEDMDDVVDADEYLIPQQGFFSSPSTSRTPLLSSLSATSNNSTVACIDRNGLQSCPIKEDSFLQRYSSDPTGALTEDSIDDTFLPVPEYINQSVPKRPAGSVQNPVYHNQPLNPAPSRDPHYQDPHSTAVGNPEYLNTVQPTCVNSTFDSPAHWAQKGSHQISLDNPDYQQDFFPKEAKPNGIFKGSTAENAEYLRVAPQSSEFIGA

Sequence of Vascular endothelial growth factor receptor 2 (P35968 whole entry, the tested form may be a part): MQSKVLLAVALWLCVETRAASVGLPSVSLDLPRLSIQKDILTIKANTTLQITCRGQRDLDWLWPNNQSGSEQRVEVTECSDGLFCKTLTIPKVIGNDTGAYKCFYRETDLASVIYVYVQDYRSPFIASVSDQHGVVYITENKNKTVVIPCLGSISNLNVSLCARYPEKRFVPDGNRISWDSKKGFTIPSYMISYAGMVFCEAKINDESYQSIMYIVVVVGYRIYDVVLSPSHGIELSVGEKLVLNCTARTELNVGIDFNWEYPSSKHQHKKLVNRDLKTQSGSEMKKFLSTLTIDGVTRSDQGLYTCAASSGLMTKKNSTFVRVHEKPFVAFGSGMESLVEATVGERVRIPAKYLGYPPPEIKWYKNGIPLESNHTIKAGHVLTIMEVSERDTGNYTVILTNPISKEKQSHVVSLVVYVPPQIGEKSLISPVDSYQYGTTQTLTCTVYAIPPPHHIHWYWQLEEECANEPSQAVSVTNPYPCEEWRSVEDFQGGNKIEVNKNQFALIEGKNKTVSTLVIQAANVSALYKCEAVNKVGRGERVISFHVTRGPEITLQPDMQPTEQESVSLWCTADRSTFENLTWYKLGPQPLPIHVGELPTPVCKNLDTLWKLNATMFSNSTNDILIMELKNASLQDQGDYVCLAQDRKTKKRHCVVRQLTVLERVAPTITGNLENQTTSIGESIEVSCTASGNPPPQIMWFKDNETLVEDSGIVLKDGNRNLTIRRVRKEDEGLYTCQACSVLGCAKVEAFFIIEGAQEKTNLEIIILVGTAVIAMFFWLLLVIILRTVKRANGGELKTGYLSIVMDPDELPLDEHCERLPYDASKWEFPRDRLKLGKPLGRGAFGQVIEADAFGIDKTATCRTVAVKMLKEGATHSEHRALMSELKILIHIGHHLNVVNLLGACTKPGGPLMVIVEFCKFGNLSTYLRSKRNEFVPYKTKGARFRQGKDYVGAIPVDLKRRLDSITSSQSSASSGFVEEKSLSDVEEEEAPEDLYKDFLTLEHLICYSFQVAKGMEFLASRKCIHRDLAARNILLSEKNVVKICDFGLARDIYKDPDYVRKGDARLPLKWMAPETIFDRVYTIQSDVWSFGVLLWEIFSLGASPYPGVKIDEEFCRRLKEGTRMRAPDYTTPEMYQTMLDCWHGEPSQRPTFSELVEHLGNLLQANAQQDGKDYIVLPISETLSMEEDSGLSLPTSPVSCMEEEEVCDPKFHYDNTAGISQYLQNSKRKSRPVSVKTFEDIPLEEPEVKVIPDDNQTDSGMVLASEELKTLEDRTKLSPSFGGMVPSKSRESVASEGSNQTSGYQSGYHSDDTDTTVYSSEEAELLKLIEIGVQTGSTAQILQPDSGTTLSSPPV

With `COc1cc2c(Nc3ccc(NC(=O)Nc4ccc(C)c(C)c4)c(Cl)c3)ncnc2cc1OCCCN1CCOCC1`, the IC50 in assay [1] was 0.014 µM; in assay [2], 7.29 µM; in assay [3], 2.63 µM; in assay [4], 3.52 µM; in assay [5], 0.051 µM.

Take `COC(=O)CNC(=O)c1ccc(Nc2ncnc3cc(OCCCN4CCOCC4)c(OC)cc23)cc1`: the 50% inhibitory concentration (IC50) is 0.404 µM in assay [1]; over 50 µM in assay [2]; over 50 µM in assay [3]; over 50 µM in assay [4]; 0.763 µM in assay [5].

Consider `COc1cc2c(Nc3ccc(NC(=O)Nc4ccc(Cl)cc4)cc3)ncnc2cc1OCCCN1CCN(C)CC1`, for which the IC50 in assay [1] is 0.815 µM; in assay [2], 28.7 µM; in assay [3], over 50 µM; in assay [4] it was 17.8 µM; in assay [5], 0.235 µM.

Consider `COc1cc2c(Nc3ccc(NC(=O)Nc4ccccc4)cc3)ncnc2cc1OCCCN1CCN(C)CC1`, for which the IC50 stood at 0.576 µM in assay [1]; 49.4 µM in assay [2]; 29.1 µM in assay [3]; 28.4 µM in assay [4]; 0.194 µM in assay [5].

On to `COc1cc2c(Nc3ccc(NC(=O)Nc4ccccc4C)cc3)ncnc2cc1OCc1ccccc1`, for which the IC50 in assay [1] is over 10 µM; in assay [2], 28.8 µM; in assay [3], over 50 µM; in assay [4] it was 23.9 µM; in assay [5] it was over 10 µM.

In the case of `COc1cc2c(Nc3ccc(NC(=O)Nc4ccc(C)c(C)c4)c(Cl)c3)ncnc2cc1OCCN1CCCCC1`, the IC50 turned out to be 0.018 µM in assay [1]; 1.85 µM in assay [2]; 1.27 µM in assay [3]; 2.9 µM in assay [4]; 0.817 µM in assay [5].

Regarding `COc1cc2c(Nc3ccc(NC(=O)Nc4ccc(C)c(C)c4)c(Cl)c3)ncnc2cc1OCCCN1CCN(C)CC1`, the IC50 in assay [1] was determined as 0.079 µM; in assay [2], 1.76 µM; in assay [3], 7.28 µM; in assay [4] it was 26 µM; in assay [5], 0.001 µM.

As for `COc1cc2c(Nc3ccc(NC(=O)Nc4ccc(C)c(C)c4)cc3)ncnc2cc1OCCCN1CCN(C)CC1`, the IC50 in assay [1] turned out to be 0.214 µM; in assay [2], 25.9 µM; in assay [3] it was 36.5 µM; in assay [4], 22 µM; in assay [5], 0.668 µM.

For `COc1cc2c(Nc3ccc(NC(=O)Nc4ccccc4)c(Cl)c3)ncnc2cc1OCCN1CCCCC1`, the IC50 is 1.87 µM in assay [1]; over 50 µM in assay [2]; over 50 µM in assay [3]; over 50 µM in assay [4]; 0.212 µM in assay [5].

In the case of `COc1cc2c(Nc3ccc(NC(=O)Nc4cccc(Cl)c4)cc3)ncnc2cc1OCc1ccccc1`, the concentration for half-maximal inhibition (IC50) in assay [1] is over 10 µM; in assay [2], over 50 µM; in assay [3], over 50 µM; in assay [4] it was over 50 µM; in assay [5], 4.65 µM.

Regarding `COc1cc2c(Nc3ccc(NC(=O)Nc4ccc(C)cc4)cc3)ncnc2cc1OCc1ccccc1`, the IC50 in assay [1] is over 10 µM; in assay [2], over 50 µM; in assay [3], over 50 µM; in assay [4], 25.4 µM; in assay [5], over 10 µM.

On to `COc1cc2c(Nc3ccc(NC(=O)Nc4ccc(C)c(C)c4)cc3)ncnc2cc1OCc1ccccc1`, for which the IC50 is over 10 µM in assay [1]; over 50 µM in assay [2]; over 50 µM in assay [3]; 49.6 µM in assay [4]; over 10 µM in assay [5].

Consider `COc1cc2c(Nc3ccc(NC(=O)Nc4ccc(Cl)cc4)c(Cl)c3)ncnc2cc1OCCCN1CCN(C)CC1`, for which the IC50 is 0.279 µM in assay [1]; 20.7 µM in assay [2]; over 50 µM in assay [3]; 28 µM in assay [4]; 0.001 µM in assay [5].

Turning to `COc1cc2c(Nc3ccc(NC(=O)Nc4ccc(Cl)cc4)cc3)ncnc2cc1OCc1ccccc1`, the IC50 in assay [1] is over 10 µM; in assay [2], over 50 µM; in assay [3] it was over 50 µM; in assay [4], 38.8 µM; in assay [5] it was over 10 µM.

For the molecule `COc1cc2c(Nc3ccc(NC(=O)Nc4ccc(Cl)cc4)c(Cl)c3)ncnc2cc1OCCCN1CCOCC1`, the IC50 was found to be 0.528 µM in assay [1]; 22 µM in assay [2]; 39.2 µM in assay [3]; 28 µM in assay [4]; 0.017 µM in assay [5].

For the molecule `COC(=O)CNC(=O)c1ccc(Nc2ncnc3cc(OCCN4CCCCC4)c(OC)cc23)cc1`, the IC50 in assay [1] was 0.966 µM; in assay [2] it was over 50 µM; in assay [3], 8.39 µM; in assay [4], over 50 µM.

On to `COc1cc2c(Nc3ccc(NC(=O)Nc4ccccc4)cc3)ncnc2cc1OCc1ccccc1`, for which the IC50 in assay [1] was over 10 µM; in assay [2], over 50 µM; in assay [3], 22.8 µM; in assay [4], over 50 µM; in assay [5], 2.93 µM.

As for `COc1cc2c(Nc3ccc(NC(=O)Nc4ccccc4)c(Cl)c3)ncnc2cc1OCCCN1CCN(C)CC1`, the IC50 is 0.261 µM in assay [1]; 17.3 µM in assay [2]; over 50 µM in assay [3]; 33 µM in assay [4]; 0.014 µM in assay [5].

For the molecule `COc1cc2/c(=N/c3ccc(Br)cc3F)nc[nH]c2cc1OCC1CCN(C)CC1` [VANDETANIB], the results for the IC50 in assay [2], in assay [3] and in assay [4] were 18.9 µM, 11.8 µM and 37.1 µM, respectively.

`COc1cc2c(Nc3ccc(NC(=O)Nc4cccc(Cl)c4)cc3)ncnc2cc1OCCCN1CCN(C)CC1`: the IC50 in assay [1] amounted to 0.588 µM; in assay [2] it was 22.9 µM; in assay [3], 24.7 µM; in assay [4], 8.16 µM; in assay [5], 0.5 µM.

With `COc1cc2c(Nc3ccc(NC(=O)Nc4ccc(Cl)cc4)c(Cl)c3)ncnc2cc1OCCN1CCCCC1`, the IC50 in assay [1] was over 10 µM; in assay [2] it was 4.38 µM; in assay [3], 1.89 µM; in assay [4] it was 5 µM; in assay [5], over 10 µM.

For the molecule `COc1cc2c(Nc3ccc(NC(=O)Nc4ccccc4C)c(Cl)c3)ncnc2cc1OCCCN1CCN(C)CC1`, the IC50 in assay [1] was 0.178 µM; in assay [2], 4.81 µM; in assay [3], 6.21 µM; in assay [4], over 50 µM.

For `COc1cc2c(Nc3ccc(NC(=O)Nc4ccc(F)c(Cl)c4)c(Cl)c3)ncnc2cc1OCCCN1CCN(C)CC1`, the IC50 was found to be 0.014 µM in assay [1]; 6.41 µM in assay [2]; 3.2 µM in assay [3]; 12.1 µM in assay [4]; 0.078 µM in assay [5].

Consider `COc1cc2c(Nc3ccc(NC(=O)Nc4ccccc4C)cc3)ncnc2cc1OCCCN1CCN(C)CC1`, for which the IC50 is 1.99 µM in assay [1]; over 50 µM in assay [2]; 32.2 µM in assay [3]; 22.3 µM in assay [4]; 0.502 µM in assay [5].

For `COC(=O)CNC(=O)c1ccc(Nc2ncnc3cc(OCCCN4CCN(C)CC4)c(OC)cc23)cc1`, the IC50 in assay [1] was 0.275 µM; in assay [2] it was over 50 µM; in assay [3], over 50 µM; in assay [4], over 50 µM; in assay [5], 0.611 µM.

What is called IC50 is the midpoint of a concentration-inhibition curve.
